{
  "source": "patent US4839374A",
  "about": "“4-((Bicyclic heterocyclyl)-methyl and -hetero)-piperidines” (Janssen Pharmaceutica, N.V., priority 1987, dated 1989)",
  "key": {"[1]": {"test_system": "compound 48/80-induced lethality", "experiment": "Protection of rats from compound 48/80-induced lethality", "assay_type": "in vivo, rats of an inbred Wistar strain", "settings": "Rattus norvegicus, 4 h, read-out: Compound 48/80 lethality test in rats ED50, s.c. or p.o. 1 h before compound 48/80 0.5 mg/kg i.v.; protection of 50% of animals, survival after 4 hours", "method_in_brief": "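Male inbred Wistar rats (240-260 g), starved overnight, dosed subcutaneously or orally with compound or 0.9% NaCl before compound 48/80 challenge. Survival at 4 hours counted as protection. ED50 in mg/kg is the dose protecting 50% of animals from lethality.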"}, "[2]": {"test_system": "effects of serotonin", "experiment": "Antagonistic activity on the effects of serotonin in the gastric lesion test (lesions induced by compound 48/80)", "assay_type": "in vivo, rats of a Wistar inbred strain", "settings": "for ED50: Rattus norvegicus, po, read-out: gastric lesion test ED50", "experimental": "Antagonistic activity on the effects of serotonin in the gastric lesion test.\nThe shock, followed by dead, can be avoided if the rats are pretreated with a classical H 1 antagonist.\nMale rats of a Wistar inbred strain, weighing 220-250 g, were starved overnight, water being available ad libitum. The test compounds were administered orally as a solution or as a suspension in aqueous medium. A control rat and a \"blank\" rat received the test compound. One hour later 5-[4-(diphenylmethyl)1-piperazinylmethyl]-1-methyl-1H-benzimidazole-2-methanol was administered subcutaneously to all rats at the dose of 2.5 mg/kg. […] Four hours after the intravenous injection of compound 48/80, the rats were decapitated and the stomachs were removed. Subsequently the stomachs were inspected for distension and contents (blood, fluid, food) and thoroughly rinsed. The macroscopic lesions were scored from 0 to +++, 0 corresponding to complete absence of visible lesions and the highest score corresponding to reddish rough patches covering more than half the glandular area.\nThe second column of tables 1-4 show for a number of compounds of formula (I) the doses (in mg/kg body weight) at which the distension of the stomach as well as the lesions in the glandular area of the stomach are completely absent in 50% of the test rats (ED50 -value)."}, "[3]": {"settings": "compound 48/80 1 mg/kg i.v., distension and lesions of stomach completely absent in 50% of rats"}},
  "note": "Like-named read-outs stand apart in the source and are kept apart here.",
  "data": [
    {"smiles": "Cc1nc2ccccn2c(=O)c1CCN1CCC(Cc2nc3cccnc3n2Cc2ccco2)CC1", "note": "[Compound 180]", "values": [
      {"measurement": "ED50", "setting": "[1]", "value": 0.01, "unit": "mg/kg"},
      {"measurement": "ED50", "setting": "[2]; [3]", "value": 0.31, "unit": "mg/kg"}
    ]},
    {"smiles": "CN(C)C(=O)NCCN1CCC(Cc2nc3cccnc3n2Cc2ccc(F)cc2)CC1", "note": "[Compound 448, N'-[2-[4-[[3-[(4-fluorophenyl)methyl]-3H-imidazo[4,5-b]pyridin-2-yl]methyl]-1-piperidinyl]ethyl]-N,N-dimethylurea]", "values": [
      {"measurement": "ED50", "setting": "[1]", "value": 0.08, "unit": "mg/kg"},
      {"measurement": "ED50", "setting": "[2]; [3]", "value": 0.16, "unit": "mg/kg"}
    ]},
    {"smiles": "COc1ncccc1C(=O)NCCN1CCC(Cc2nc3ccccc3n2Cc2ccc(F)cc2)CC1", "note": "[Compound 438, N-[2-[4-[[1-[(4-fluorophenyl)methyl]-1H-benzimidazol-2-yl]methyl]-1-piperidinyl]ethyl]-2-methoxy-3-pyridinecarboxamide]", "values": [
      {"measurement": "ED50", "setting": "[1]", "value": 0.08, "unit": "mg/kg"},
      {"measurement": "ED50", "setting": "[2]; [3]", "value": 0.16, "unit": "mg/kg"}
    ]},
    {"smiles": "Fc1ccc(Cn2c(CC3CCN(CCNc4nc5ccccc5s4)CC3)nc3ccccc32)cc1", "note": "[Compound 367]", "values": [
      {"measurement": "ED50", "setting": "[1]", "value": 0.16, "unit": "mg/kg"},
      {"measurement": "ED50", "setting": "[2]; [3]", "value": 0.16, "unit": "mg/kg"}
    ]},
    {"smiles": "Fc1ccc(Cn2c(CC3CCN(CCN4CCOCC4)CC3)nc3ccccc32)cc1", "note": "[Compound 131]", "values": [
      {"measurement": "ED50", "setting": "[1]", "value": 0.02, "unit": "mg/kg"},
      {"measurement": "ED50", "setting": "[2]; [3]", "value": 0.16, "unit": "mg/kg"}
    ]},
    {"smiles": "O=C(NCCN1CCC(Cc2nc3ccccc3n2Cc2ccc(F)cc2)CC1)C(=O)c1cccs1", "note": "[Compound 439, N[2-[;b 4-[[1-[(4-fluorophenyl)methyl]-1H-benzimidazol-2-yl]methyl]-1-piperidinyl]ethyl]-α-oxo-2-thiopheneacetamide]", "values": [
      {"measurement": "ED50", "setting": "[1]", "value": 0.16, "unit": "mg/kg"},
      {"measurement": "ED50", "setting": "[2]; [3]", "value": 0.31, "unit": "mg/kg"}
    ]},
    {"smiles": "Cc1nc2ccccn2c(=O)c1CCN1CCC(Sc2nc3ccccc3n2Cc2ccc(F)cc2)CC1", "note": "[Compound 244, 3-[2-[4-[[1-[(4-fluorophenyl)methyl]-1H-benzimidazol-2-yl]thio]-1-piperidinyl]-ethyl]-2-methyl-4H-pyrido[1,2-a]pyrimidin-4-one]", "values": [
      {"measurement": "ED50", "setting": "[1]", "value": 0.16, "unit": "mg/kg"},
      {"measurement": "ED50", "setting": "[2]; [3]", "value": 0.31, "unit": "mg/kg"}
    ]},
    {"smiles": "Fc1ccc(Cn2c(CC3CCN(CCNc4nccs4)CC3)nc3cccnc32)cc1", "note": "[Compound 357]", "values": [
      {"measurement": "ED50", "setting": "[1]", "value": 0.02, "unit": "mg/kg"},
      {"measurement": "ED50", "setting": "[2]; [3]", "value": 0.63, "unit": "mg/kg"}
    ]},
    {"smiles": "Fc1ccc(Cn2c(CC3CCN(CCNc4nnc(Cl)c5ccccc45)CC3)nc3ccccc32)cc1", "note": "[Compound 381, 4-chloro-N-[2-[4-[[1-[(4-fluorophenyl)methyl]-1H-benzimidazol-2-yl]methyl]-1-piperidinyl]ethyl]-1-phthalazinamine]", "values": [
      {"measurement": "ED50", "setting": "[1]", "value": 0.08, "unit": "mg/kg"},
      {"measurement": "ED50", "setting": "[2]; [3]", "value": 0.16, "unit": "mg/kg"}
    ]},
    {"smiles": "Cc1nc2n(c(=O)c1CCN1CCC(Cc3nc4ccccc4n3Cc3cccs3)CC1)CCCC2", "note": "[Compound 263]", "values": [
      {"measurement": "ED50", "setting": "[1]", "value": 0.04, "unit": "mg/kg"},
      {"measurement": "ED50", "setting": "[2]", "value": 0.04, "unit": "mg/kg"}
    ]},
    {"smiles": "CCCC(=O)c1ccc(OC)c(C(=O)NCCN2CCC(Cc3nc4ccccc4n3Cc3ccc(F)cc3)CC2)c1", "note": "[Compound 441, N-[2-[4-[[1-[(4-fluorophenyl)methyl]-1H-benzimidazol-2-yl]methyl]-1-piperidinyl]ethyl]-2-methoxy-5-(1-oxobutyl)benzamide]", "values": [
      {"measurement": "ED50", "setting": "[1]", "value": 0.08, "unit": "mg/kg"},
      {"measurement": "ED50", "setting": "[2]; [3]", "value": 0.16, "unit": "mg/kg"}
    ]},
    {"smiles": "O=C(CCCN1CCC(Cc2nc3cccnc3n2Cc2ccc(F)cc2)CC1)c1ccc(F)cc1", "note": "[Compound 127]", "values": [
      {"measurement": "ED50", "setting": "[1]", "value": 0.08, "unit": "mg/kg"},
      {"measurement": "gastric lesion test ED50", "setting": "[2]; oral, compound 48/80 1 mg/kg i.v., distension and lesions of stomach completely absent in 50% of rats, 1 mg/kg", "value": 0.63, "unit": "mg/kg body weight"}
    ]},
    {"smiles": "Fc1ccc(Cn2c(CC3CCN(C4CCCCC4)CC3)nc3ccccc32)cc1", "note": "[Compound 99]", "values": [
      {"measurement": "ED50", "setting": "[1]", "value": 0.04, "unit": "mg/kg"},
      {"measurement": "ED50", "setting": "[2]; [3]", "value": 0.31, "unit": "mg/kg"}
    ]},
    {"smiles": "Oc1ccc(CCN2CCC(Cc3nc4ccccc4n3Cc3ccc(F)cc3)CC2)cc1", "note": "[Compound 504, 4-[2-[4-[[1-[(4-fluorophenyl)methyl]-1H-benzimidazol-2-yl]methyl]-1-piperidinyl]ethyl]phenol]", "values": [
      {"measurement": "ED50", "setting": "[1]", "value": 0.08, "unit": "mg/kg"},
      {"measurement": "ED50", "setting": "[2]; [3]", "value": 0.63, "unit": "mg/kg"}
    ]},
    {"smiles": "O=c1[nH]c2ccccc2c(=O)n1CCN1CCC(Cc2nc3ccccc3n2Cc2ccc(F)cc2)CC1", "note": "[Compound 209]", "values": [
      {"measurement": "ED50", "setting": "[1]", "value": 0.08, "unit": "mg/kg"},
      {"measurement": "ED50", "setting": "[2]; [3]", "value": 0.63, "unit": "mg/kg"}
    ]},
    {"smiles": "Cn1cccc1C(=O)NCCN1CCC(Cc2nc3ccccc3n2Cc2ccc(F)cc2)CC1", "note": "[Compound 433, N-[2-[4-[[1-[(4-fluorophenyl)methyl]-1H-benzimidazol-2-yl]methyl]-1-piperidinyl]ethyl]-1-methyl-1H-pyrrole-2-carboxamide]", "values": [
      {"measurement": "ED50", "setting": "[1]", "value": 0.01, "unit": "mg/kg"},
      {"measurement": "ED50", "setting": "[2]; [3]", "value": 0.16, "unit": "mg/kg"}
    ]}
  ]
}
